One test addresses BTK recombinant protein (Homo sapiens (Human), UniProt Q06187). The experiment in a line: Determination of biochemical BTK (Z'-LYTE kinase assay). From the text:
Example 2 Determination of Biochemical BTK
(§1) 1. Reagents and Materials
BTK recombinant protein: Invitrogen, Cat #PV3363;
Z′-LYTE® kinase test kit-tyrosine 1 peptide: Invitrogen, Cat #PV3190;
Z′-LYTE® biochemical assay employs a fluorescence resonance energy transfer (FRET)—based, coupled-enzyme format and is based on the differential sensitivity of phosphorylated and non-phosphorylated peptides to proteolytic cleavage. Both ends of the short peptide substrate are labeled with two fluorescent groups to form a FRET paired combination. In the primary reaction (the Kinase Reaction), the kinase transfers the γ-phosphate of ATP to a single […] residue on the short peptide substrate. In the secondary reaction (the development reaction), the non-phosphorylated short peptides were recognized and cleaved by a site-specific protease (the development reagent). Phosphorylated short peptides can resist such cleavage. Cleavage of short peptides can disrupt the donor (such as coumarin) and receptor fluorophores (fluorescein) on the short peptides, while the phosphorylated short peptides can maintain FRET. The calculation method of the ratio is as follows, and the ratio of the respective emission signals generated by the donor fluorophores emitted (after excitation at 400 nm) to the receptors is calculated. Emission signal ratio=emitted light by coumarin (445 nm)/emitted light by fluorescein (520 nm). If the FRET short peptide is phosphorylated (such as no kinase inhibitor), the emitted light ratio will remain in a lower level. If the FRET short peptide is non-phosphorylated (such as kinase inhibitor), the emitted light ratio will be in a higher level. In this way, the inhibitory effects of different compound inhibitors on BTK kinase activity would be distinguished.
The experiment were carried out according to the instructions of the Z′-LYTE® kinase test kit-tyrosine 1 peptide. Reagent preparation: 1.33× kinase buffer: 5× kinase buffer was diluted with water to 1.33× kinase buffer; an enzyme solution: the kinase was dissolved in 1.33× kinase buffer with the final working concentration being 3.32 nM; a short peptide solution: a short peptide stock solution (1 mM dissolved in DMSO) was dissolved in 1.33× kinase buffer with the final working concentration being 2 μM; Z′-LYTE Tyr01 phosphorylated short peptide solution, 0.6 μl of stock solution (1 mM dissolved in DMSO) was dissolved in 149.4 μl of 1.33× kinase buffer; an ATP solution: an ATP stock solution (10 mM aqueous solution) was dissolved in 1.33× kinase buffer with the final working concentration being 32 μM; a color-developing solution: color-developing solution B was dissolved in color-developing buffer with the final working concentration being 1× color-developing solution; 4× compound preparation: the compound was diluted in 3-fold gradient concentration to finally obtain 4% DMSO aqueous solution containing different concentrations of the compound, with the final working concentration being 3000, 1000, 333.33, 111.11, 37.04, 12.35, 4.12, 1.37 nM, 8 concentration points in total.
Specific steps of the experiment: In the experiment, there were three control groups, each with 8 replicate wells, which were C1 100% inhibition group (no ATP), C2 0% inhibition group (with ATP), and C3 100% phosphorylation group, respectively. 2.5 μl of serially diluted compound was added to each well of a 384-well plate, with double replicate wells, and 4% DMSO solution was added to wells C1, C2, and C3. After that, except for wells C3, 2.5 μl of BTK enzyme solution was added to each remaining well, which was left to stand at 4° C. for 30 minutes. After that, except for wells C3, 2.5 μl of short peptide solution was added to each well, and 5 μl of phosphorylated short peptide solution was added to each of wells C3. 2.5 μl of 1.33× kinase buffer was added to each of wells C1 and C3, and 2.5 μl of ATP solution was added to each of the remaining wells. […]

In test [1] the target is phosphorylated BTK in Ramos cells (Homo sapiens (Human), UniProt Q06187). Nature of the test: Determination of phosphorylated BTK in Ramos cells (BTK phospho-Y223 HTRF). In kind it is cell-based. The conditions noted are these: anti-human IgM + hydrogen peroxide stimulation. The procedure: Determination of Phosphorylated BTK in Ramos Cells
Sequence of phosphorylated BTK in Ramos cells (Q06187 whole entry): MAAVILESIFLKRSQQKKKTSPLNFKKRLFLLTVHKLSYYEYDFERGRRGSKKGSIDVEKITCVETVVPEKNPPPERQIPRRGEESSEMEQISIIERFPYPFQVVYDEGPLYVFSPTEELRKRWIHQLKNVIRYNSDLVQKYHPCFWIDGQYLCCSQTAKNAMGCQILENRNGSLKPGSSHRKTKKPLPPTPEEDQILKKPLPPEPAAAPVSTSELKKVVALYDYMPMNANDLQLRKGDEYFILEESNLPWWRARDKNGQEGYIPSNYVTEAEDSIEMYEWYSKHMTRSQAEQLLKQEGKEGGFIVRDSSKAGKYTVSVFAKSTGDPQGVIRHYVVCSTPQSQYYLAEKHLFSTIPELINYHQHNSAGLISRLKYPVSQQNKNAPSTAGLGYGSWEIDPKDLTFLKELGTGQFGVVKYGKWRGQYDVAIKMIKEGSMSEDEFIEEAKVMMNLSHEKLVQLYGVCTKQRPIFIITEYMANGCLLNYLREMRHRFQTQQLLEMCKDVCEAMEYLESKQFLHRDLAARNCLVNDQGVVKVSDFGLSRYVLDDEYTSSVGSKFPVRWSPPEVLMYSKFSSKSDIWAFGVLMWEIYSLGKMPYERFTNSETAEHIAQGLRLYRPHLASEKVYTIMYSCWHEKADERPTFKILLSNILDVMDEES
as §1
Ramos cells: Ramos cells were purchased from American Standard Biological Collection Center ATCC Cell Bank, PRMI 1640 medium containing L-glutamine, 1.5 g/L of sodium bicarbonate, 2.383 g/L of HEPES solution, 0.11 g/L of sodium pyruvate and 4.5 g/L of glucose was used, added 10% fetal bovine serum FBS, and placed in a 5% CO2, 37° C. cell incubator for normal culture;
Phosphorylated BTK HTRF detection kit (BTK phospho-Y223 HTRF kit): Cisbio, Cat #63ADK017PEH;
Ramos cells were starved in PRMI 1640 medium with 1% FBS for 2 hours. The starved Ramos cells were diluted with Hank's balanced salt solution to 5.0×10^6 cells/ml, seeded in a 96-well plate with 20 μL/well (1.0×10^5 cells/well), and cultured in a 5% CO2, 37° C. cell incubator. After culturing for 1 hour, the test compound was diluted with Hank's balanced salt solution in 4-fold gradient to the corresponding concentrations, and then 5 μL/well of the diluted test compound with different concentrations (the final concentrations of the test compound were 3.0, 0.75, 0.188, 0.047, 0.012, 0.0029, 0.0007 and 0.00018 μM, and the final concentration of DMSO was 0.3%, double replicate wells) or 5 μL/well of control solution (1.5% DMSO, 8 replicate wells) were added to 20 μL/well of cell culture system, which incubated together for another hour, then 5 μL/well of a mixed solution of human immunoglobulin M (final concentration was 10 μg/mL) and hydrogen peroxide (final concentration was 3.3 mM) diluted with Hank's balanced salt solution was added to the treating wells for the test compound and the control treating wells for anti-human immunoglobulin M, and 5 μL/well of Hank's balanced salt solution was added to negative control treating wells. The plate was incubated in a 5% CO2, 37° C. cell incubator for 10 minutes.
10 μL/well of cell lysis buffer was added to each well of a 96-well plate, which was mixed well and lysed at room temperature for 30 minutes. 16 μL/well of lysis buffer was pipetted to a new 384 well plate, and then added 4 μL/well of phosphorylated BTK antibody, centrifuged (1000 rpm) for 1 minute, then shaken for 1 minute, further centrifuged (1000 rpm) for 1 minute, and finally placed in a constant temperature incubator overnight. Detection was performed on the next day.
The 384 well plate incubated overnight in the constant temperature incubator was taken out to detect the luminescence signal using the Envision microwell plate reader at the […]. The reading value at 665 nm/615 nm of each well multiplied by 104 was used as the signal value of each well.
The average signal value of the wells supplemented with the mixed solution of human immunoglobulin M (final concentration was 10 μg/mL) and hydrogen peroxide (final concentration was 3.3 mM) without the test compound was regarded as the high value, and the average signal value of the wells without immunoglobulin M stimulation and without the test compound was regarded as the low value. According to the signal value in each well, the inhibition ratio (%) of each concentration of compounds was calculated, and the 205 model in XL-Fit 5.3 software (ID Business Solutions Limited) was used to obtain an IC50 value.
The inhibition ratio is calculated as follows: inhibition ratio (%)=100%−{(treating well for the test compound−negative control treating well)/(control treating well for anti-human immunoglobulin M−negative control treating well)}×100%, wherein,
Treating well for the test compound: represents the signal value of Ramos cells treated with anti-human immunoglobulin M, hydrogen peroxide and the test compound.
Control treating well for anti-human immunoglobulin M: represents the signal value of Ramos cells treated with anti-human immunoglobulin M, hydrogen peroxide but without the test compound. […]

Some results are limits rather than exact numbers.

Sequence of BTK recombinant protein (Q06187 whole entry): as above

As usually defined, the IC50 is the concentration that inhibits the measured activity by half. For `C[C@H]1CN(C2COC2)CCN1c1ccc(Nc2cc(-c3ccnc(-n4ccn5c6c(cc5c4=O)CC(C)(C)[C@H]6O)c3CO)cn(C)c2=O)nc1` [Compound 199], the values for the 50% inhibitory concentration (IC50) (on BTK recombinant protein; in test [1]) were 8 nM and 25 nM, respectively.
The matching figures for `C[C@H]1CN(C2COC2)CCN1c1ccc(Nc2cc(-c3ccnc(-n4ncn5c6c(cc5c4=O)CCCC6)c3CO)cn(C)c2=O)nc1` [Compound 157]: 16 nM and 25 nM.
The matching figures for `CC1c2cc(Nc3cc(-c4ccnc(-n5ncn6c7c(cc6c5=O)CC(C)(C)C7)c4CO)cn(C)c3=O)nn2CCN1C1COC1` (centres unmarked) [Compound 118]: 5 nM and 1 nM.
For the compound `CCn1nc(-c2ccnc(-n3ccn4c5c(cc4c3=O)CC(C)(C)C5)c2CO)cc(Nc2ccc(N3CCN(C4COC4)C[C@@H]3C)cn2)c1=O` [Compound 14], the IC50 on BTK recombinant protein stood at 51 nM; in test [1], 14 nM.
For `COCCN1CCN(c2ccc(Nc3cc(-c4ccnc(-n5ncn6c7c(cc6c5=O)CC(C)(C)C7)c4CO)cn(C)c3=O)nc2)C(C)(C)C1` [Compound 220] the same measures were 5 nM and 16 nM.
Regarding `C[C@H]1CN(C2COC2)CCN1c1ccc(Nc2cc(-c3ccnc(-n4ccn5c(cc6cccnc65)c4=O)c3CO)cn(C)c2=O)nc1` [Compound 67], the values for the IC50 (at BTK recombinant protein; in test [1]) were 82 nM and 60 nM, respectively.
For `C[C@H]1CN(C2COC2)CCN1c1ccc(Nc2cc(-c3ccnc(-n4ncn5c6c(c(F)c5c4=O)CCCC6)c3CO)cn(C)c2=O)nc1` [Compound 186] the same measures were 14 nM and 10 nM.
For `Cn1cc(-c2ccnc(-n3ncn4c5c(cc4c3=O)CC(C)(C)C5)c2CO)cc(Nc2cc3n(n2)CCN(C2COC2)C3)c1=O` [Compound 122] the same measures were under 1 nM and 7 nM.
For `C[C@@H]1CN(c2ccc(Nc3cc(-c4ccnc(-n5ncn6c7c(cc6c5=O)CC(C)(C)C7)c4CO)cn(C)c3=O)nn2)[C@@H](C)CN1C1COC1` [Compound 209] the same measures were 11 nM and 5 nM.
Turning to “2-(3′-(hydroxymethyl)-5-((5-(2-methoxyethyl)-4-methyl-4,5,6,7-tetrahydropyrazolo[1,5-a]pyrazin-2-yl) amido)-1-methyl-6-oxo-1,6-dihydro-[3,4′-bispyridin]-2′-yl)-7,7-dimethyl-7,8-dihydro-2H-cyclopenta[4,5]pyrrolo[1,2-d][1,2,4]triazin-1(6H)-one optically Pure [Compound 120]”, the figures for the IC50 (at BTK recombinant protein; in test [1]) were 8 nM and 5 nM, respectively.
The matching figures for `Cc1ccc(Nc2cc(-c3ccnc(-n4ccn5c6c(cc5c4=O)CC(C)(C)C6)c3CO)cn(C)c2=O)nc1` [Compound 125]: 33 nM and 21 nM.
The matching figures for `Cn1cc(-c2ccnc(-n3ncn4c5c(cc4c3=O)CC(C)(C)C5)c2CO)cc(Nc2ccc(N3CCN(C4COC4)CC3(C)C)cn2)c1=O` [Compound 191]: 11 nM and 10 nM.
For `C[C@H]1CN(C2COC2)CCN1c1ccc(Nc2cc(-c3ccnc(-n4ccn5c6c(cc5c4=O)CC(C)(C)C6)c3CO)cn(C)c2=O)nn1` [Compound 204] the same measures were 11 nM and 7 nM.
Consider `Cc1cc(Nc2cc(-c3ccnc(-n4ccn5c6c(cc5c4=O)CC(C)(C)C6)c3CO)cn(C)c2=O)no1` [Compound 87], for which the 50% inhibitory concentration (IC50) on BTK recombinant protein was found to be 11 nM; in test [1], 3 nM.
The matching figures for `CC(O)CN(CCNc1ccc(Nc2cc(-c3ccnc(-n4ccn5c6c(cc5c4=O)CC(C)(C)C6)c3CO)cn(C)c2=O)nc1)C1COC1` (racemic) [Compound 179]: 19 nM and 70 nM.
Consider `CC[C@H]1CN(C2COC2)CCN1c1ccc(Nc2cc(-c3ccnc(-n4ccn5c6c(cc5c4=O)CC(C)(C)C6)c3CO)cn(C)c2=O)nc1` [Compound 91], for which the IC50 on BTK recombinant protein amounted to 17 nM; in test [1], 4 nM.
For `Cn1cc(-c2ccnc(-n3ccn4c5c(cc4c3=O)CC(C)(C)C5)c2CO)cc(Nc2ccc(C3=CCN(C4COC4)CC3)cn2)c1=O` [Compound 36] the same measures were 31 nM and 12 nM.
For `C[C@H]1CN(C2COC2)CCN1c1ccc(Nc2cc(-c3ccnc(-n4ccn5c(cc6c(F)cccc65)c4=O)c3CO)cn(C)c2=O)nc1` [Compound 53] the same measures were 33 nM and 25 nM.
For `Cn1cc(-c2ccnc(-n3ccn4c5c(cc4c3=O)CC(C)(C)C5)c2CO)cc(Nc2ccccc2)c1=O` [Compound 77] the same measures were 441 nM and 132 nM.
As to `Cn1cc(-c2ccnc(-n3ccn4c5c(cc4c3=O)CC(C)(C)C5)c2CO)cc(Nc2ccc(N3CCC4(CC3)COC4)cn2)c1=O` [Compound 229], the IC50 on BTK recombinant protein is 12 nM; in test [1], 10 nM.
For `Cc1ccc(Nc2cc(-c3ccnc(-n4ncn5c6c(cc5c4=O)CC(C)(C)C6)c3CO)cn(C)c2=O)nn1` [Compound 132] the same measures were 51 nM and 28 nM.
Regarding `CC1c2cc(Nc3cc(-c4ccnc(-n5ccn6c7c(cc6c5=O)CC(C)(C)C7)c4CO)cn(C)c3=O)nn2CCN1C1COC1` (centres unmarked) [Compound 112], the half-inhibitory concentration (IC50) at BTK recombinant protein amounted to 5 nM; in test [1], 3 nM.

These data come from patent publication US11478474B2, “2-(3′-(hydroxymethyl)-1-methyl-5-((5-(2-methyl-4-(oxetan-3-yl)piperazin-1-yl)pyridin-2-yl)amino)-6-oxo-1,6-dihydro-[3,4′-bipyridin]-2′-yl)-7,7-dimethyl-7,8-dihydro-2H-cyclopenta[4,5]pyrrolo[1,2-a]pyrazin-1(6H)-one as a BTK inhibitor” (HUTCHISON MEDIPHARMA LIMITED, priority 2020, dated 2022).
